Measurements from patent USRE39616E1, “Aminoindan derivatives” (priority 1996, dated 2007).
pIC50: −log10 of the molar value. Counter-ions that a name gives are not always drawn. Like-named read-outs stand apart in the source and are kept apart here. Marks after values point to notes of the source that are not given here.

How the values were obtained:
[1] = test system: Closed Head Injury (CHI) in Mice; assay: Closed Head Injury (CHI) in mice: motor function, neurological severity score (NSS); type: in vivo; conditions: difference from NSS at 1 hr
[2] = biological target: T1, whole brain AChE (Mus musculus, UniProt P21836); conditions: for AChE Inhibition Ex vivo ED50 (AC): mice, whole brain, at peak of activity; for AChE Inhibition Time to peak activity t / AChE Inhibition Time to return to 50% of peak t: mouse, in vivo
T1 sequence (P21836 32-614): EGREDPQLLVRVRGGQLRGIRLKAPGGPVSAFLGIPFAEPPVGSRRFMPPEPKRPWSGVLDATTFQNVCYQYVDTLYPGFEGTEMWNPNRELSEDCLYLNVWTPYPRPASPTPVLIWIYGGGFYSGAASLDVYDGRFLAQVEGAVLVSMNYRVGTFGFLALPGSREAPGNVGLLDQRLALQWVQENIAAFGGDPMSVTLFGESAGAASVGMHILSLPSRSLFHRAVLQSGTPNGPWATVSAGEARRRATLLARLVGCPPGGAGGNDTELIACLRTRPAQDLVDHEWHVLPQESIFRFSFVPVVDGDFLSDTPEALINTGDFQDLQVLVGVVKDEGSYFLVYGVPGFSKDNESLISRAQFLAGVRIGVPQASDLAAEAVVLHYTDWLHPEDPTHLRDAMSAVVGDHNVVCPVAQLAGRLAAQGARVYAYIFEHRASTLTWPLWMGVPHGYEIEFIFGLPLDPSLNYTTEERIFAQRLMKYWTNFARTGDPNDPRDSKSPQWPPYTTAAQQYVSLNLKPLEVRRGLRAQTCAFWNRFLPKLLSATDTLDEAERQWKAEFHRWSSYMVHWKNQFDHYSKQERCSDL
Method: Test drugs or saline were administered sub-cutaneously to male mice (Sabra strain, 28-35 g). […] The mice were sacrificed 15, 30, 50, 70, 90, 120 or 180 minutes after drug administration, the brains rapidly removed (minus cerebellum), weighed and homogenized in 0.1 M phosphate buffer, pH 8.0, containing Triton (1 mg/100 g tissue) and centrifuged to remove cell debris. Aliquots (25 μl) of the supernatant were then incubated with acetylthiocholine and DTNB. AChE activity was measured as described above. The % inhibition of whole brain AChE by each dose of drug was calculated by comparison with enzyme activity from 3 saline treated control mice run at the same time.

[3] = test system: Closed Head Injury (CHI) in Mice; assay: Morris Water Maze Test after closed head injury (reference memory); conditions: retested daily for 2 weeks
Method: Morris Water Maze Test: the water maze consists of a circular aluminium pool, im in diameter and 60 cm in depth, filled with water to a depth of 17.5 cm. The hidden goal platform is a glass vessel (15 cm diameter×16.5 cm height) placed upside down at a fixed location in the pool, 1 cm below the surface of the water. The water temperature is maintained at 24° C. and the pool is always placed in the same position in the room to provide the same extra-maze cues. […] Commencing 24 hr after CHI, mice were retested daily for 2 weeks in 3 trials per day.

[4] = biological target: T2, Human erythrocyte acetylcholinesterase (Homo sapiens, UniProt P22303); assay: biochemical; type: biochemical; conditions: AChE Inhibition In vitro IC50
T2 construct: Human erythrocyte acetylcholinesterase (type XIII, Sigma Israel); purchased Sigma Israel type XIII; host or cells: human erythrocytes
T2 sequence (P22303 32-617 isoform P22303-2 limits assumed): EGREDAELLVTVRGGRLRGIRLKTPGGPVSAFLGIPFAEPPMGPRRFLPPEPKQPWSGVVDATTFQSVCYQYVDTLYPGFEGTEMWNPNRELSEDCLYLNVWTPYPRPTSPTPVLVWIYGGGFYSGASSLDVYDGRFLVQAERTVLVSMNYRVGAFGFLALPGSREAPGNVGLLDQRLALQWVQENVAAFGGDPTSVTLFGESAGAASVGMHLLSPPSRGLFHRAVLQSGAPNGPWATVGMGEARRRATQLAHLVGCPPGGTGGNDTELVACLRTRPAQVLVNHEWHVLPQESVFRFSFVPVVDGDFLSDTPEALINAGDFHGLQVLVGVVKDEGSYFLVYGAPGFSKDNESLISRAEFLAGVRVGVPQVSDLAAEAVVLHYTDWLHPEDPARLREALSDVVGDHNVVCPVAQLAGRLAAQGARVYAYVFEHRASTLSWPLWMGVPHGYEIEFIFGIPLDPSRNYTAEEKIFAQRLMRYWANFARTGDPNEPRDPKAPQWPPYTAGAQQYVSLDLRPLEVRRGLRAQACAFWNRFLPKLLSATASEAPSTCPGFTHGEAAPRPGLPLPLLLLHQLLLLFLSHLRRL
How it was run: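 Erythrocyte AChE (type XIII) from 1 U/ml stock containing 1% Triton and 0.05% BSA in phosphate buffer pH 8; 0.05 U enzyme preincubated with 3-5 compound concentrations, triplicate, 15 to 60 minutes at 37° C. Percent inhibition calculated against drug-free enzyme.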

[5] = biological target: T3, MAO-B (Rattus norvegicus, UniProt P19643); assay: Inhibition of MAO activity in vitro, PEA as substrate; type: biochemical; parameters: The MAO enzyme source was a homogenate of rat brain in 0.3M sucrose; from tissue; host or cells: rat brain homogenate, 600 g supernatant; conditions: MAO-B Inhibition In vitro IC50, rat brain homogenate
T3 sequence (P19643 1-520): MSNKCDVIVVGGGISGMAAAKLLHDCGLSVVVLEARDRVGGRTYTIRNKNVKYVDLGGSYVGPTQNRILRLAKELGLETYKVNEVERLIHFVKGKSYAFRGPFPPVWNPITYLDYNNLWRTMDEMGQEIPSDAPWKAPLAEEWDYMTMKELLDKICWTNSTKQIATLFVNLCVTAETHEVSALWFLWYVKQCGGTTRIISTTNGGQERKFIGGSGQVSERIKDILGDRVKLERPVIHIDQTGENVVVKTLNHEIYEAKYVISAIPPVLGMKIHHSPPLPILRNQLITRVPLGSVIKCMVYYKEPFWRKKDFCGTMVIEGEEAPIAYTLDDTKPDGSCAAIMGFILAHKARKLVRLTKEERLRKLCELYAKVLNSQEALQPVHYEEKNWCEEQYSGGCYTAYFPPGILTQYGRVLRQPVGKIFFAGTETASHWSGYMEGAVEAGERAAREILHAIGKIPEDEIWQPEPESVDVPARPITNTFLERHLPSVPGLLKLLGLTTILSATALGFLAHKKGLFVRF
Method: (§1) Substrate concentrations used were 50 μM (PEA) and 1 mM (5-HT).

[6] = test system: Middle Cerebral Artery Occlusion (MCA-O) in Male Wistar Rats
Method: Male Wistar rats (Olac England-Jerusalem) 300-400 g each were anesthetized with a solution of Equitesine administered i.p. at a dose of 3 ml/kg. Equitesine consists of 13.5 ml sodium pentothal solution (60 mg/ml), 3.5 g chloral hydrate, 1.75 g MgSO4, 33 ml propylene glycol, 8.3 ml absolute alcohol, made up to 83 ml with distilled water.
The dura matter was opened carefully using a 27 gauge needle The MCA was permanently occluded by microbipolar coagulation at low power setting, beginning 2-3 mm medial to the olfactory tract between its cortical branch to the rhinal cortex and the laterate striate arteries. After coagulation, the MCA was severed with microscissors and divided to ensure complete occlusion. Following this, the temporalis muscle was sutured and laid over the craniectomy site. The skin was closed with a running 3-0 silk suture. A sham craniectomy operation was performed on a parallel group of rats, but without cauterization of the MCA.
At 24 and 48 hours post surgery a neurological score was taken in order to assess the severity of the injury in the drug-treated rats with respect to their untreated controls.
Drugs were administered as an s.c. injection, according to the following schedule:
The scale runs from 0 (fully normal rats) to 13 (fully incapacitated rats). Most parameters are rated as either 0 (normal), or 1 (incapacitated) others are graded. […]

[7] = biological target: T4, MAO-A (Rattus norvegicus, UniProt P21396); assay: in vivo; type: in vivo, rats; parameters: animals were sacrificed and MAO levels determined in the brain, liver and intestines; from tissue; host or cells: rat brain, liver and intestine; conditions: for % MAO-A inhibition: HCl
T4 sequence (P21396 1-526): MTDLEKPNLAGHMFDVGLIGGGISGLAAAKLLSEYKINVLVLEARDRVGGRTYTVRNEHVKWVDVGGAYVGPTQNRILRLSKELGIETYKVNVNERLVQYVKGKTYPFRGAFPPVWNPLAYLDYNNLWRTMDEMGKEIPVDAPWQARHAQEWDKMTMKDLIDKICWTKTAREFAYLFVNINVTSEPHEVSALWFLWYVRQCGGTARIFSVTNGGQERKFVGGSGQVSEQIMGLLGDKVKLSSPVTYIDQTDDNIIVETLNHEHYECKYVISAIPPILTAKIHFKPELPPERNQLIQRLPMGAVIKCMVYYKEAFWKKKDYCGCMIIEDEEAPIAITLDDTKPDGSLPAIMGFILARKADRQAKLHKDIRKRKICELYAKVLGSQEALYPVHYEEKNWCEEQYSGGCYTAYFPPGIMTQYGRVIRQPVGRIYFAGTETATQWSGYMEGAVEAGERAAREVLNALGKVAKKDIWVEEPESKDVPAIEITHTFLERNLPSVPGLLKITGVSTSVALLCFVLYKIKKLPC
Method: as §1
Male Sabra mice, weighing 45-50 g were injected with test compound solutions (prepared in 0.9% saline). Each dose was administered to two or three mice. The mice were sacrificed two hours after drug administration or at a time corresponding to the peak AChE inhibition time (see Table 11). The brain and liver were rapidly dissected and stored in appropriate vials on ice. The tissues were weighed, diluted to ½ in sucrose 0.3M and stored at −20° C. before performance of the MAO assay described above. The results given in Table 11 relate to measurements made on brain tissue only.
Experiments were done in Sprague Dawley male rats. […] At the end of this period animals were sacrificed and MAO levels determined in the brain, liver and intestines.

[8] = 15 mg/kg sc once 15 min after CHI
[9] = 46 mg/kg administered 60 min before CHl
[10] = 46 mg/kg sc once 15 min after CHI
[11] = 6.5 mg/kg sc once 15 min after CHI

Compound: CCN(C)C(=O)Oc1ccc2c(c1)C(NC)CC2 (centres unmarked) [Compound 10]
- ΔNSS, 24 hr post-CHl [1, 8]: 5.36 ± 0.39
- ΔNSS, 7 days post-CHl [1, 8]: 6.64 ± 0.41^m
- ΔNSS, 14 days post-CHl [1, 8]: 6.73 ± 0.52
- AChE Inhibition Ex vivo ED50 (AC) [2]: 34.7 µmol/kg
- AChE Inhibition Time to peak activity t [2]: 60 to 90 min
- AChE Inhibition Time to return to 50% of peak t [2]: >180 min
- reduction in latency to find the platform, Morris Water Maze, compared to saline treated controls ([3]; 15 mg/kg, FIG. 1): Memory is enhanced

Compound: C#CCNC1CCc2cccc(OC(=O)N(C)C)c21 (centres unmarked) [Compound 27]
- pIC50 [4]: 5.24
- AChE Inhibition Ex vivo ED50 (AC) [2]: 30 µmol/kg
- AChE Inhibition Time to peak activity t [2]: 15 min
- AChE Inhibition Time to return to 50% of peak t [2]: >60 min
- pIC50 [5]: < 3.00

Compound: C#CCN(C)C1CCc2ccc(OC(=O)N(C)C)cc21 (centres unmarked) [Compound 29]
- pIC50 [4]: 5.07
- AChE Inhibition Ex vivo ED50 (AC) [2]: 53.7 µmol/kg
- AChE Inhibition Time to peak activity t [2]: 15 min
- AChE Inhibition Time to return to 50% of peak t [2]: >60 min
- pIC50 [5]: 4.40

Compound: C#CCNC1CCc2ccc(OC(=O)N(C)CC)cc21 (centres unmarked) [Compound 25, 6-(N-Me, N-Etcarbamyloxy) N-propargyl aminoindan, HCl]
- pIC50 [4]: 4.28
- ΔNSS, 24 hr post-CHl [1, 9]: 4.90 ± 0.43
- ΔNSS, 7 days post-CHl [1, 9]: 7.70 ± 0.33^m
- ΔNSS, 14 days post-CHl [1, 9]: 8.80 ± 0.33^m
- ΔNSS, 24 hr post-CHl [1, 10]: 5.00 ± 0.42
- ΔNSS, 7 days post-CHl [1, 10]: 7.42 ± 0.62^m
- ΔNSS, 14 days post-CHl [1, 10]: 9.01 ± 0.69^m
- AChE Inhibition Ex vivo ED50 (AC) [2]: 140.0 µmol/kg
- AChE Inhibition Time to peak activity t [2]: 60 min
- AChE Inhibition Time to return to 50% of peak t [2]: >180 min
- ΔNSS (difference measured at 24 hours and 48 hours) ([6]; s.c. 43 mg/kg 90 minutes prior to MCA-O and 30 mg/kg 3 hours post MCA-O): 1.78
- reduction in latency to find the platform, Morris Water Maze, compared to saline treated controls ([3]; 46 mg/kg, FIG. 2): Memory is enhanced
- selectivity of MAO inhibition, brain versus periphery (liver, intestines) ([7]; in vivo): selectivity in inhibiting MAO enzyme sub-types in the brain in preference to the periphery
- % MAO-A inhibition ([7]; in vivo, po, 50 mg/kg): 25%
- % MAO-A inhibition ([7]; in vivo, sc, 25 mg/kg): 0%

Compound: CN(C)C(=O)Oc1ccc2c(c1)C(N)CC2 (centres unmarked) [Compound 1]
- AChE Inhibition Ex vivo ED50 (AC) [2]: 5.0 µmol/kg
- AChE Inhibition Time to peak activity t [2]: 30 min
- AChE Inhibition Time to return to 50% of peak t [2]: >120 min
- pIC50 [5]: < 3.00

Compound: C#CCNC1CCc2ccc(OC(=O)N(C)C)cc21 (centres unmarked) [Compound 24, 6-(N,N-Dimethylcarbamyloxy)-N-propargyl aminoindan mesylate]
- ΔNSS, 24 hr post-CHl [1, 11]: 6.31 ± 0.23^m
- ΔNSS, 7 days post-CHl [1, 11]: 8.67 ± 0.41^m
- ΔNSS, 14 days post-CHl [1, 11]: 9.67 ± 0.66^m
- ΔNSS (difference measured at 24 hours and 48 hours) ([6]; s.c. […] 15 minutes prior to MCA-O and 6.5 mg/kg 2 hours post MCA-O): 1.625
- pIC50 [5]: 3.12
- inhibition at 10 mg/kg ([7]; po, read-out: % MAO-A inhibition, Brain, po, 10 mg/kg daily for 14 days, rats): 0%
- inhibition at 10 mg/kg ([7]; po, read-out: % MAO-A inhibition, Intestine, po, 10 mg/kg daily for 14 days, rats): 30%
- inhibition at 10 mg/kg ([7]; po, read-out: % MAO-A inhibition, Liver, po, 10 mg/kg daily for 14 days, rats): 10%
- inhibition at 6 mg/kg ([7]; sc, read-out: % MAO-A inhibition, Brain, sc, 6 mg/kg daily for 14 days, rats): 30%
- inhibition at 6 mg/kg ([7]; sc, read-out: % MAO-A inhibition, Intestine, sc, 6 mg/kg daily for 14 days, rats): 0%
- inhibition at 6 mg/kg ([7]; sc, read-out: % MAO-A inhibition, Liver, sc, 6 mg/kg daily for 14 days, rats): 0%
